Data published in patent US20230330093A1, “APPLICATION OF NITROGEN-CONTAINING SATURATED HETEROCYCLIC COMPOUND” (SHANGHAI PHARMACEUTICALS HOLDING CO., LTD., priority 2020, published 2023).
Several values for one entry are separate records, joined by “and”; a condition that tells them apart may be missing. Identical values can stand only once. Entries after “also recorded” stand apart in the source; their conditions may differ.

Tests used:
[1] = tested on: rhesus monkeys with spontaneous chronic kidney disease; test: Effect on BUN, 8-week administration; assay type: in vivo, Macaca mulatta (Rhesus Macaque); settings: Valsartan group (n = 3)
Procedure: (§1) In the trial, animals were brought in three stages. […] Glomerular filtration rate […]: creatinine (Cr-P), urea nitrogen (BUN) and cystatin (CysC) were detected, and the eGFR value was obtained by calculation. It was performed once before the administration and once every two weeks after the administration. […] ELISA kit was used for NT-proBNP test. [table]

[2] = tested on: rhesus monkeys with spontaneous chronic kidney disease; test: Effect on heart function, cardiac Doppler ultrasound, 8-week administration; settings: for Ea / LVEF: Valsartan group (n = 3)
Procedure: In the trial, animals were brought in three stages.
This was performed once before administration and once after administration. UACR=MALB/Cr—U. • Blood pressure: the blood pressure was checked after anesthesia, including systolic blood pressure (SBP), diastolic blood pressure (DBP), mean blood pressure (MBP) and heart rate (HR). This was performed once before administration and once at weeks 4 and 8 respectively after administration. • Cardiac GE Doppler ultrasound: historical cardiac ultrasonography once within 1 year (selected animals), once before administration (within 30 days (D-30) of the baseline period), and once at week 8 after administration.
Anesthesia method: 15 mg/kg of ketamine hydrochloride was used for intramuscular injection anesthesia. According to the animal anesthesia state, the supplemental anesthesia will be performed after judgment by veterinarian. Each supplemental anesthesia dose was ½ of the initial dose.
Detection method: The animal was placed in the left decubitus position, and the 6S-RS probe (frequency 2.7-8.0 MHz) was used for image acquisition.
Analysis method: After the image was collected and saved, the supporting analysis workstation EchoPAC Software was used to repeatedly detect various indicators of systolic and diastolic functions in 3 consecutive cardiac cycles.
Testing indicators and ultrasonic technology: see Table 9 below.
Testing equipment: GE Vivid S5 color Doppler ultrasound diagnostic system.

[3] = tested on: rhesus monkeys with spontaneous chronic kidney disease; test: Effect on NT-proBNP (ELISA), 8-week administration; assay type: in vivo, Macaca mulatta (Rhesus Macaque); settings: Valsartan group (n = 3)
From the text: In the trial, animals were brought in three stages. […] ELISA kit was used for NT-proBNP test. [table]

[4] = tested on: rhesus monkeys with spontaneous chronic kidney disease (CKD); test: Effect on UACR (proteinuria), 8-week oral administration; assay type: in vivo, Macaca mulatta (Rhesus Macaque); settings: for MALB: Valsartan group 2.67 mg/kg/time oral (qd wk 1-2, bid wk 3-8); for MALB / UACR change rate / UACR: per animal + Mean ± SD; for UACR change rate: 8 weeks vs baseline, negative = decrease
Procedure: CKD-EPI rating […]-G3b, glomerular filtration rate eGFR: 30 59 ml/min/1.73 m^2; or moderate to severe increase in proteinuria (A2-A3): urine albumin/creatinine ratio (UACR)>15 mg/g-350 mg/g (4-6 hour urine collection), vs. age-matched control group 3±2 mg/g. In the trial, animals were brought in three stages. […] ELISA kit was used for NT-proBNP test. [table]

[5] = tested on: rhesus monkeys with spontaneous chronic kidney disease; test: Effect on cystatin C (CysC), 8-week administration; assay type: in vivo, Macaca mulatta (Rhesus Macaque); settings: Valsartan group (n = 3)
Procedure: as §1

[6] = Baseline, single animals and Mean ± SD
[7] = Baseline, single animals and Mean ± SD, mean

SMILES: CCCCC(=O)N(Cc1ccc(-c2ccccc2-c2nnn[nH]2)cc1)[C@H](C(=O)O)C(C)C [Valsartan, reference compound]
- BUN ([1]; 4 weeks): 22.2 mg/dL and 29.1 mg/dL and 33.4 mg/dL
- BUN ([1]; 4 weeks, mean): 28.2 ± 5.7 mg/dL
- BUN ([1]; 8 weeks): 19.5 mg/dL and 33.4 mg/dL and 26.0 mg/dL
- BUN ([1]; 8 weeks, mean): 26.3 ± 7.0 mg/dL
- BUN ([1]; Baseline2, single animals and Mean ± SD): 19.0 mg/dL and 25.4 mg/dL and 31.2 mg/dL
- BUN ([1]; Baseline2, single animals and Mean ± SD, mean): 25.2 ± 6.1 mg/dL
- Ea ([2]; 8 weeks): 7.01 cm/s and 7.17 cm/s and 4.61 cm/s
- LVEF ([2]; 8 weeks): 64.09% and 57.98% and 61.97%
- Ea ([2]; Baseline): 4.16 cm/s and 5.14 cm/s and 3.44 cm/s
- LVEF [2, 6]: 64.02% and 58.75% and 59.26%
- adverse reaction in the systolic and diastolic function (echocardiography) ([2]; each dose group, 8-week administration): no obvious adverse reaction
- NT-proBNP ([3]; 4 weeks): 179 pg/mL and 260 pg/mL and 285 pg/mL
- NT-proBNP ([3]; 4 weeks, mean): 241 ± 56 pg/mL
- NT-proBNP ([3]; 8 weeks): 217 pg/mL and 288 pg/mL and 291 pg/mL
- NT-proBNP ([3]; 8 weeks, mean): 266 ± 42 pg/mL
- NT-proBNP [3, 6]: 211 pg/mL and 500 pg/mL and 394 pg/mL
- NT-proBNP [3, 7]: 368 ± 146 pg/mL
- MALB ([4]; 8 weeks): 6.2 mg/L and 39.9 mg/L and 19.5 mg/L
- MALB ([4]; 8 weeks, mean): 21.9 ± 17.0 mg/L
- MALB ([4]; Baseline): 7.1 mg/L and 60.0 mg/L and 25.8 mg/L
- MALB ([4]; Baseline, mean): 31.0 ± 26.8 mg/L
- UACR change rate ([4]; Valsartan group 2.67 mg/kg/time oral): -41.10% and -69.59% and 35.88%
- UACR change rate ([4]; Valsartan group 2.67 mg/kg/time oral, mean): −24.93 ± 54.56%
- UACR Benefit assessment ([4]; Valsartan group 2.67 mg/kg/time oral, 8 weeks, per animal): both showed benefit; also recorded: the benefit was not obvious
- UACR ([4]; Valsartan group 2.67 mg/kg/time oral, 8 weeks): 22.0 mg/g and 19.3 mg/g and 20.4 mg/g
- UACR ([4]; Valsartan group 2.67 mg/kg/time oral, 8 weeks, mean): 20.6 ± 1.3 mg/g
- UACR ([4]; Valsartan group 2.67 mg/kg/time oral, Baseline): 15 mg/g and 37.3 mg/g and 63.6 mg/g and 15.0 mg/g and 38.7 ± 24.3 mg/g
- UACR of W8 decreased by, compared with the baseline ([4]; Valsartan group, 2 animals (No. 2091, No. 4861)): 40%-70%
- W8 UACR after administration ([4]; Valsartan group, one animal with baseline UACR 15 mg/g): 20.4%
- CysC ([5]; 2 weeks): 1.44 mg/L and 1.62 mg/L and 1.76 mg/L
- CysC ([5]; 2 weeks, mean): 1.61 ± 0.16 mg/L
- CysC ([5]; 4 weeks): 1.47 mg/L and 1.65 mg/L and 1.74 mg/L
- CysC ([5]; 4 weeks, mean): 1.62 ± 0.14 mg/L
- CysC ([5]; 6 weeks): 1.58 mg/L and 1.69 mg/L
- CysC ([5]; 6 weeks, mean): 1.62 ± 0.06 mg/L
- CysC ([5]; 8 weeks): 1.59 mg/L and 1.64 mg/L and 1.63 mg/L
- CysC ([5]; 8 weeks, mean): 1.62 ± 0.03 mg/L
- CysC [5, 6]: 1.66 mg/L and 1.68 mg/L and 1.73 mg/L
- CysC [5, 7]: 1.69 ± 0.04 mg/L
